This is an account of results in US20050032873A1, “3-Amino chroman and 2-amino tetralin derivatives” (Wyeth, priority 2003, published 2005).

Where a name gives a salt, the structure may show the parent alone.

One may read the melting point as the temperature of the solid-liquid transition.

With `CCN(CCc1c[nH]c2ccc(F)cc12)C1COc2c(F)ccc(C(=O)NC)c2C1` (stereo not shown) (as salt: hydrochloride) [Compound 85, 3-{ethyl[2-(5-fluoro-1H-indol-3-yl)ethyl]amino}-8-fluoro-N-methylchromane-5-carboxamide], the melting point was 125 °C (dec.).

As to `CCN(CCCc1c[nH]c2ccc(OC)cc12)C1COc2c(F)ccc(C(N)=O)c2C1` (stereo not shown) (as salt: hydrochloride) [Compound 105, 3-{ethyl[3-(5-methoxy-1H-indol-3-yl)propyl]amino}-8-fluorochromane-5-carboxamide], the melting point was 154 to 162 °C (dec.). Next, `COc1cccc2c1CC(N(CCCc1c[nH]c3ccccc13)C1CCC1)CO2` (stereo not shown) (as salt: hydrochloride) [Compound 44, N-cyclobutyl-N-[3-(1H-indol-3-yl)propyl]-N-(5-methoxy-3,4-dihydro-2H-chromen-3-yl)amine]: 113 to 117 °C. As for `COc1cccc2c1CC(N(CCCc1cn(C)c3ccc(F)cc13)CC1CC1)CO2` (stereo not shown) (as salt: hydrochloride) [Compound 38, N-(cyclopropylmethyl)-N-[3-(5-fluoro-1-methyl-1H-indol-3-yl)propyl]-N-(5-methoxy-3,4-dihydro-2H-chromen-3-yl)amine], the melting point is 86 °C (dec.). For `CCCN(CCCc1csc2ccc(F)cc12)C1COc2cccc(OC)c2C1` (stereo not shown) (as salt: hydrochloride) [Compound 19, N-[3-(5-fluoro-1-benzothien-3-yl)propyl]-5-methoxy-N-propylchroman-3-amine], the melting point was 78 °C (dec.).

In the case of `CCCN(CCCc1c[nH]c2ccc(F)cc12)[C@H]1CCc2cccc(OC)c2C1` (as salt: hydrochloride) [Compound 47a, (−)-N-[3-(5-fluoro-1H-indol-3-yl)propyl]-8-methoxy-N-propyl-1,2,3,4-tetrahydronaphthalen-2-amine], the melting point was 107 °C (dec.).

Turning to `CNC(=O)c1ccc(F)c2c1CC(N(CCCc1c[nH]c3ccc(F)cc13)C1CCC1)CO2` (stereo not shown) (as salt: hydrochloride) [Compound 59, 3-{cyclobutyl[3-(5-fluoro-1H-indol-3-yl)propyl]amino}-8-fluoro-N-methylchromane-5-carboxamide], the melting point was 132 °C (dec.). Turning to `NC(=O)c1ccc(F)c2c1CC(NCCCn1ccc3ccccc31)CO2` (stereo not shown) (as salt: hydrochloride) [Compound 184, 8-Fluoro-3-{[3-(1H-indol-1-yl)propyl]amino}chromane-5-carboxamide], the melting point lay in the range of 155 to 156 °C.

`NC(=O)c1ccc(F)c2c1CC(NCCCc1c[nH]c3ccc(Cl)cc13)CO2` (stereo not shown) (as salt: hydrochloride) [Compound 114, 3-{[3-(5-chloro-1H-indol-3-yl)propyl]amino}-8-fluorochromane-5-carboxamide] registered a melting point of 218 to 221 °C. As to `NC(=O)c1ccc(F)c2c1CC(N(CCCc1c[nH]c3ccc(Cl)cc13)CC1CC1)CO2` (stereo not shown) (as salt: hydrochloride) [Compound 118, 3-[[3-(5-chloro-1H-indol-3-yl)propyl](cyclopropylmethyl)amino]-8-fluorochromane-5-carboxamide], the melting point is 150 to 158 °C (dec.). For `C[C@@H](CCN(C1CCC1)[C@@H]1COc2c(F)ccc(C(N)=O)c2C1)c1c[nH]c2ccc(F)cc12` (as salt: hydrochloride) [Compound 153b, (3S)-3-{cyclobutyl[(3S)-3-(5-fluoro-1H-indol-3-yl)butyl]amino}-8-fluorochromane-5-carboxamide], the melting point lay in the range of 162 to 168 °C. In the case of `NC(=O)c1ccc(F)c2c1OCC(N(CCCc1c[nH]c3c(F)cc(F)cc13)CC1CC1)C2` (stereo not shown) (as salt: hydrochloride) [Compound 130, 3-{(cyclopropylmethyl)[3-(5,7-difluoro-1H-indol-3-yl)propyl]amino}-5-fluorochromane-8-carboxamide], the melting point is 124 °C (dec.).

`NC(=O)c1ccc(F)c2c1CC(NCCCCn1ccc3cccc(F)c31)CO2` (stereo not shown) (as salt: hydrochloride) [Compound 188, 8-Fluoro-3-{[4-(7-fluoro-1H-indol-1-yl)butyl]amino}chromane-5-carboxamide] registered a melting point of 166 to 168 °C. Turning to `COC(=O)c1ccc(F)c2c1C[C@H](N(CCCCc1c[nH]c3ccc(F)cc13)C1CCC1)CO2` (as salt: hydrochloride) [Compound 58a, Methyl (3S)-3-{cyclobutyl[4-(5-fluoro-1H-indol-3-yl)butyl]amino}-8-fluorochromane-5-carboxylate], the melting point is 209 °C (dec.). In turn, `CCCN(C(C)CCCc1c[nH]c2ccc(F)cc12)C1COc2c(F)ccc(C(N)=O)c2C1` (single isomer, unassigned; (-)) (as salt: hydrochloride) [Compound 14b, (−)-8-fluoro-3-[[4-(5-fluoro-1H-indol-3-yl)-1-methylbutyl](propyl)amino]chromane-5-carboxamide] registered a melting point of 147 to 150 °C. As for `O=C(NCC1CC1)c1ccc(F)c2c1CC(N(CCCc1c[nH]c3ccc(F)cc13)C1CCC1)CO2` (stereo not shown) (as salt: hydrochloride) [Compound 68, 3-{cyclobutyl[3-(5-fluoro-1H-indol-3-yl)propyl]amino}-N-(cyclopropylmethyl)-8-fluorochromane-5-carboxamide], the figure is 114 °C (dec.). For the molecule `COC(=O)c1ccc(F)c2c1CC(N(CCCCc1c[nH]c3ccc(F)cc13)C1CCC1)CO2` (stereo not shown) (as salt: hydrochloride) [Compound 58, Methyl 3-{cyclobutyl[4-(5-fluoro-1H-indol-3-yl)butyl]amino}-8-fluorochromane-5-carboxylate], the melting point was 115 °C (dec.). Molecule `COc1cccc2c1CC(N(CCCc1c[nH]c3ccccc13)CC1CC1)CO2` (stereo not shown) (as salt: hydrochloride) [Compound 43, N-(cyclopropylmethyl)-N-[3-(1H-indol-3-yl)propyl]-N-(5-methoxy-3,4-dihydro-2H-chromen-3-yl)amine] displayed a melting point of 107 to 110 °C. As for `COC(=O)c1ccc(F)c2c1C[C@H](NCCCCc1c[nH]c3ccc(F)cc13)CO2` (as salt: hydrochloride) [Compound 57a, Methyl (3S)-8-fluoro-3-{[4-(5-fluoro-1H-indol-3-yl)butyl]amino}chromane-5-carboxylate], the melting point is 240 °C (dec.).

In the case of `NC(=O)c1ccc(F)c2c1OCC(NCCCCc1c[nH]c3ccc(F)cc13)C2` (stereo not shown) (as salt: hydrochloride) [Compound 123, 5-fluoro-3-{[4-(5-fluoro-1H-indol-3-yl)butyl]amino}chromane-8-carboxamide], the melting point is 119 °C (dec.). On to `N#Cc1ccc2[nH]cc(CCCN(C3CCC3)[C@H]3COc4c(F)ccc(C(N)=O)c4C3)c2c1` (as salt: hydrochloride) [Compound 97b, (3R)-3-[[3-(5-cyano-1H-indol-3-yl)propyl](cyclobutyl)amino]-8-fluorochromane-5-carboxamide], for which the melting point was 166 to 171 °C (dec.). In the case of `NC(=O)c1ccc(F)c2c1CC(NCCCc1c[nH]c3ccc(F)cc13)CO2` (single isomer, unassigned; (+)) (as salt: hydrochloride) [Compound 1a, (+)-8-fluoro-3-{[3-(5-fluoro-1H-indol-3-yl)propyl]amino}chromane-5-carboxamide], the melting point was 89 °C (dec.). Take `CCN(CCCc1c[nH]c2ccc(F)cc12)C1COc2cccc(OC)c2C1` (stereo not shown) (as salt: hydrochloride) [Compound 31, N-ethyl-N-[3-(5-fluoro-1H-indol-3-yl)propyl]-5-methoxychroman-3-amine]: the melting point is 91.2 °C (dec.). `COc1cccc2c(CCCNC3COc4c(F)ccc(C(N)=O)c4C3)c[nH]c12` (stereo not shown) (as salt: hydrochloride) [Compound 99, 8-fluoro-3-{[3-(7-methoxy-1H-indol-3-yl)propyl]amino}chromane-5-carboxamide] had a melting point of 196 to 198 °C.

Take `NC(=O)c1ccc(F)c2c1C[C@H](N(CCCCc1c[nH]c3ccc(F)cc13)C1CCC1)CO2` (as salt: hydrochloride) [Compound 83b, (3S)-3-{cyclobutyl[4-(5-fluoro-1H-indol-3-yl)butyl]amino}-8-fluorochromane-5-carboxamide]: the melting point was 128 °C (dec.). `CC(CCc1c[nH]c2c(F)cc(F)cc12)N(CC1CC1)C1COc2c(F)ccc(C(N)=O)c2C1` (single isomer, unassigned) (as salt: HCl) [Compound 154a, 3-{(cyclopropylmethyl)[3-(5,7-difluoro-1H-indol-3-yl)-1-methylpropyl]amino}-8-fluorochromane-5-carboxamide] came in with a melting point of 160 to 165 °C. As for `CCCN(CCCCc1coc2c(OC)cccc12)C1COc2c(F)ccc(C(N)=O)c2C1` (stereo not shown) (as salt: hydrochloride) [Compound 169, 8-fluoro-3-[[4-(7-methoxy-1-benzofuran-3-yl)butyl](propyl)amino]chromane-5-carboxamide], the figure is 99 to 110 °C (dec.); as for `CCCN(CCCCc1c[nH]c2ccc(F)cc12)C1COc2c(F)ccc(C(=O)NC)c2C1` (stereo not shown) (as salt: hydrochloride) [Compound 93, 8-fluoro-3-[[4-(5-fluoro-1H-indol-3-yl)butyl](propyl)amino]-N-methylchromane-5-carboxamide], 110 °C (dec.); as for `NC(=O)c1ccc(F)c2c1OCC(N(CCCc1c[nH]c3ccc(F)cc13)CC1CC1)C2` (stereo not shown) (as salt: hydrochloride) [Compound 121, 3-{(cyclopropylmethyl)[3-(5-fluoro-1H-indol-3-yl)propyl]amino}-5-fluorochromane-8-carboxamide], 123 °C (dec.). `N#Cc1ccc2[nH]cc(CCCN(CC3CC3)[C@H]3COc4c(F)ccc(C(N)=O)c4C3)c2c1` (as salt: hydrochloride) [Compound 98b, (3R)-3-[[3-(5-cyano-1H-indol-3-yl)propyl](cyclopropylmethyl)amino]-8-fluorochromane-5-carboxamide]: the melting point was 160 to 167 °C (dec.). For the molecule `COc1ccc2[nH]cc(CCCNC3COc4c(F)ccc(C(N)=O)c4C3)c2c1` (stereo not shown) (as salt: hydrochloride) [Compound 104, 8-fluoro-3-{[3-(5-methoxy-1H-indol-3-yl)propyl]amino}chromane-5-carboxamide], the melting point was 171 to 176 °C (dec.).
